Measurements: patent publication US8501446B2 (Vertex Pharmaceuticals Incorporated, priority 2004, dated 2013)

Assays:
[1] = biological target: T1, full length Aurora-A (AA 1-403) (Homo sapiens, UniProt O14965); test: Aurora-A inhibition assay, standard coupled enzyme system; format: biochemical; conditions: average Ki if more than one value determined
T1 construct: full length Aurora-A (AA 1-403)
T1 sequence (O14965 1-403): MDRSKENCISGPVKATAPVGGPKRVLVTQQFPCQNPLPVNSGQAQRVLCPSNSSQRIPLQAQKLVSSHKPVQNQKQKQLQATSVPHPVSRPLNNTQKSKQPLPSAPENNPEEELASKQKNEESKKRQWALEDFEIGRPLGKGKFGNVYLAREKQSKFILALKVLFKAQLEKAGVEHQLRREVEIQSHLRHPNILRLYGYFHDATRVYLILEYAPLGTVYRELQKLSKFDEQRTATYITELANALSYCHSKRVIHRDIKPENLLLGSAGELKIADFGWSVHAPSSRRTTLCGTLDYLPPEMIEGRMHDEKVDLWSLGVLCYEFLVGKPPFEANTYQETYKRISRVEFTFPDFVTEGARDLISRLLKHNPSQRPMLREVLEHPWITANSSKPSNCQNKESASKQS

JAK3 = biological target: T2, JAK3 (Homo sapiens, UniProt P52333); test: JAK3 inhibition assay (standard radioactive enzyme assay); format: biochemical; conditions: average Ki if more than one value determined
T2 sequence (P52333 1-1124): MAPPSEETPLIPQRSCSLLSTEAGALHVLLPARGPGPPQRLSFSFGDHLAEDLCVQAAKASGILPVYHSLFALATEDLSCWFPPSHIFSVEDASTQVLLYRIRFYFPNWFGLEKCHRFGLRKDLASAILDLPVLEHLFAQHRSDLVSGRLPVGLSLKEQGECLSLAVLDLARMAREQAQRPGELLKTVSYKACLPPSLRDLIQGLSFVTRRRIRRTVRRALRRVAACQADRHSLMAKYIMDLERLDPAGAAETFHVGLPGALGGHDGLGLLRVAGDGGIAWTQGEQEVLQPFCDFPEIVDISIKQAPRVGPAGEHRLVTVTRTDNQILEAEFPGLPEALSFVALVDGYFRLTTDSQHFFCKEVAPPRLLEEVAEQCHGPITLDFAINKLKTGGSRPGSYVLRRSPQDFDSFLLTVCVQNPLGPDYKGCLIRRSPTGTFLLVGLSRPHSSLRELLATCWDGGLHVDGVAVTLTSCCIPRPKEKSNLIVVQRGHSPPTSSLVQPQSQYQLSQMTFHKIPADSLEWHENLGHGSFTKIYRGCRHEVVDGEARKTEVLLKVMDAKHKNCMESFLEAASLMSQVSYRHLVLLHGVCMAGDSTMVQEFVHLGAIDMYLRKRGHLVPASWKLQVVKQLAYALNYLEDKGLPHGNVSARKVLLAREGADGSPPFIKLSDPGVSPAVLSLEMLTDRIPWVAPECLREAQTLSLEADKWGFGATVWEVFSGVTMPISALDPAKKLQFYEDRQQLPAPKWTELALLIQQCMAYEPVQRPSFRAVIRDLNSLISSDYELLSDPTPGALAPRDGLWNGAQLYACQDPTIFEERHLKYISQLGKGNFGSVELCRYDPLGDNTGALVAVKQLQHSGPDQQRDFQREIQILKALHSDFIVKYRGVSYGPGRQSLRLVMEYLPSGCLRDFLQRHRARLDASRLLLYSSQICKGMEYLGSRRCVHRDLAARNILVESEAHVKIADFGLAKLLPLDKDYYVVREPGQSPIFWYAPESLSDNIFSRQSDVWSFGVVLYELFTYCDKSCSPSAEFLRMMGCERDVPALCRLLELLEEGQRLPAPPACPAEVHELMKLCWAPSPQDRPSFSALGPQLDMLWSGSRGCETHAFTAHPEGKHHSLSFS

| SMILES | Ki [1] [nM] | Ki (JAK3) [nM] |
| --- | --- | --- |
| COc1cnc2[nH]cc(-c3cccc(N4C[C@@H](C)N(C(C)=O)[C@@H](C)C4)n3)c2c1 [Compound 18] | 500 to 5000 | < 500 |
| CC(=O)N1[C@H](C)CN(c2cccc(-c3c[nH]c4ncc(Cl)cc34)n2)C[C@@H]1C [Compound 19] | < 500 | < 500 |
| CCOC(=O)N1CCCN(c2nccc(-c3c[nH]c4ncc(OC)cc34)n2)CC1 [Compound 33] | < 500 | < 500 |
| COC(=O)c1cnc2[nH]cc(-c3cccc(N4C[C@@H](C)N(C(C)=O)[C@@H](C)C4)n3)c2c1 [Compound 35] | < 500 | < 500 |
| C[C@H](Nc1nc(-c2c[nH]c3ncc(Cl)cc23)ncc1F)C(=O)NCC(F)(F)F [Compound 369] | < 500 | < 500 |
| C[C@H](Nc1cccc(-c2c[nH]c3ncc(Cl)cc23)n1)c1ccc(F)cc1 [Compound 395] | < 500 | < 500 |
